Source: PMC6701825, “Antiproliferative and Antimigratory Effects of a Novel YAP–TEAD Interaction Inhibitor Identified Using in Silico Molecular Docking” (Journal of Medicinal Chemistry, 2019)

Experiments:
[1] = biological target: T1, binding of endogenous YAP protein to recombinant GST-TEAD1 (Homo sapiens, UniProt P28347); assay: In vitro GST-TEAD1-YAP interaction (pull-down) assay; conditions: 200 μM compound, HEK293 lysate, 18 h at 4 °C, Western blot
T1 construct: human TEAD1 (corresponding to residues 194–411); made in house; host or cells: SoluBL21 Escherichia coli (GST-TEAD1); HEK293 lysate (endogenous YAP)
Text: We next tested the ability of these four compounds to inhibit the binding of endogenous YAP protein present in HEK293 whole cell lysate to recombinant glutathione S-transferase (GST)–TEAD1 protein immobilized on glutathione resin beads. […] Inhibition of YAP binding to TEAD1 in the presence of CPD3 was further confirmed using co-immunoprecipitation assays using mammalian cell lysates prepared from HeLa expressing myc-TEAD1 and GFP–YAP. […] We next set up a 96-well plate-based YAP–TEAD interaction assay to determine the IC50 of the inhibition of the YAP–TEAD complex by CPD3.
The DNA fragment encoding human TEAD1 (corresponding to residues 194–411) was amplified by polymerase chain reaction (PCR) and cloned into the BamH1 and EcoR1 sites of vector pGEX-6P1, in frame with the terminal GST tag. GST–TEAD1 fusion protein expression was induced in SoluBL21s Escherichia coli by culture at 25 °C in the presence of 0.2 mM IPTG for 18 h. […] Bound proteins were eluted by boiling in Laemmli sample buffer and YAP and GST–TEAD levels quantified by Western blotting with an anti-YAP antibody (Cell Signaling; #4912) and an anti-GST antibody (Cell Signaling; #5475S).

MCF7 cells = assay: EdU proliferation assay in MCF7 cells; type: cell-based, human; conditions: MCF7, YAP-TEAD-independent growth, 18 hours then 6 hours EdU
Experimental: Cell proliferation was measured using the Click-iT EdU 488 assay (Sigma-Aldrich). Briefly, the cells were treated with indicated concentrations of compounds for 24 h with the last 4 h being in the presence of 10 μM EdU. The cells were fixed in 4% formaldehyde and stained for EdU incorporation, following the kit’s standard protocol. The cells were counterstained with Hoechst 33342 nucleic acid for 20 min. Fluorescent images of at least three fields of view per well were counted using ImageJ software. Real-time analysis of cell migration was performed using an IncuCyte ZOOM live cell imaging system (Essen BioScience) according to the manufacturer’s instructions. Briefly, the cells were seeded (1.2 × 10^4 cells/well for HeLa cells, 1.5 × 10^4 cells/well for RaVSMCs, and 1 × 10^4 cells/well) into ImageLock 96-well plates. After 36 h, the cells were pretreated overnight with indicated concentrations of compounds. The wells were scratched using a WoundMaker tool, and the media were replaced containing test compounds. Phase contrast images of cell migration into the wounded area were acquired hourly for 24 h. Relative wound confluence was calculated using the Cell Migration Image analysis module of the IncuCyte ZOOM software. […]
MCF7 cells were incubated with the indicated concentrations of CPD3.1 (n=3). […] Edu incorporation in to newly synthesised DNA was detected using the Edu-Click detection kit. […]

CCN1 protein = assay: Western blotting of CCN1 protein in VSMC lysates; type: cell-based; conditions: indicated concentrations, 16 hr
Experimental: Figure 9 Compound 3.1 inhibits TEAD target gene expression, cell proliferation, and cell migration in RaVSMCs. RaVSMCs stably transduced with TEAD-NLUC (A) or transiently transfected with CCN1-LUC or CTGF-LUC were treated with the indicated concentrations of compound 3.1 for 6 hr. Cell conditioned media (A) or cell lysates (B−C) were assayed for nanoluciferase or fire-fly luciferase activity, respectively. VSMC were treated with 60 μM compound 3.1 for 6 h (n = 3). Total RNA was analyzed for mRNA levels of TEAD-target genes (D) or constitutive housekeeping genes (E) by qRT-PCR. VSMC were treated with indicated concentrations of compound 3.1 for 16 hr (n = 4). Total cell lysates were analyzed for CCN1 protein expression by Western blotting (F). RaVSMCs (G) or HuVSMC (H) were treated with indicated concentrations of compound 3.1 for 18 h followed by labeling in 10 μM EdU for a further 6 h (n = 4). RaVSMCs (I) or HuVSMC (J) were treated with indicated concentrations of compound 3.1 and cell migration quantified using IncuCyte real time migration assay (n = 4).
Extracted samples were separated by 4–12% SDS-polyacrylamide gel electrophoresis (Bio-Rad) and transferred to poly(vinylidene difluoride) membranes (GE Healthcare). Membranes were blocked in 5% low-fat milk in 10 mM Tris pH 7.6, 150 mM NaCl, 0.2% Tween. […]

T1 sequence (P28347 209-426): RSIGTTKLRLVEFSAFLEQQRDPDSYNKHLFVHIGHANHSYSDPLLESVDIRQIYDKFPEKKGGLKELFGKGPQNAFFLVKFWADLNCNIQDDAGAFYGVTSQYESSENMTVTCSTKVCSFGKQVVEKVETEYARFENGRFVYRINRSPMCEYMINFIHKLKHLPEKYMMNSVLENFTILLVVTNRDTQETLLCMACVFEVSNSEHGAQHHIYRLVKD

SMILES	inhibition of binding of YAP protein to GST-TEAD1 [1]	proliferation of MCF7 cells (EdU) (MCF7 cells)	CCN1 protein levels (Western blot) (CCN1 protein)
Cc1ccc2c(c1)c1c3n2CCN(CC(O)CN2CCN(C(=O)c4ccco4)CC2)C3CCC1 (stereo not drawn) [CPD3]	inhibit the binding of YAP protein		
Cc1ccc2c(c1)c1c3n2CCNC3CCC1 (stereo not drawn) [CPD3.1]		did not inhibit the proliferation of MCF7 cells	inhibited the expression of CCN1 protein levels
